The target in this experiment is human PDE2A1 (Homo sapiens (Human), UniProt O00408). In words: IMAP FP PDE selectivity panel, human PDE2A1. Conditions: Human PDE2, Lab B; read-out: Human PDE2 Ki (nM) - Lab B. The format is biochemical. As to the method:
Selectivity for PDE2, as compared to other PDE families, was assessed using the IMAP® technology. Human PDE 10A2 enzyme was prepared from cytosolic fractions of transiently transfected HEK cells. All other PDE's were GST Tag human enzyme expressed in insect cells and were obtained from BPS Bioscience (San Diego, Calif.): PDE1A (Cat#60010), human PDE2A1 (Cat#60020), PDE3A (Cat#60030), PDE4A1A (Cat#60040), PDE5A1 (Cat#60050), PDE6C (Cat#60060), PDE7A (Cat#60070), PDE8A1 (Cat#60080), PDE9A2 (Cat#60090), PDE11A4 (Cat#60110).
Assays for PDE 1 through 11 were performed in parallel at room temperature in 384-well microtiter plates with an incubation volume of 20.2 μL. Solutions of test compounds were prepared in DMSO and serially diluted with DMSO to yield 30 μL of each of ten solutions differing by 3-fold in concentration, at 32 serial dilutions per plate. […] A Labcyte POD 810 (Labcyte, Sunnyvale, Calif.) was used to dispense 200 nL from each well of the titration plate to make eleven copies of the assay plate for each titration, one copy for each PDE enzyme. A solution of each enzyme (dilution from aliquots, sufficient to produce 20% substrate conversion) and a separate solution of FAM-labeled cAMP or FAM-labeled cGMP from Molecular Devices (Sunnyvale, Calif., product # R7506 or cGMP#R7508), at a final concentration of 50 nM were made in the assay buffer (10 mM Tris HCl, pH 7.2, 10 mM MgCl2, 0.05% NaN3 0.01% Tween-20, and 1 mM DTT). Note that the substrate for PDE2 is 50 nM FAM cAMP containing 1000 nM of cGMP. The enzyme and the substrate were then added to the assay plates in two consecutive additions of 10 μL and then shaken to mix. The reaction was allowed to proceed at room temperature for 60 minutes. A binding solution was then made from the kit components, comprised of 80% Solution A, 20% Solution B and binding reagent at a volume of 1/600 the total binding solution. The enzymatic reaction was stopped by addition of 60 μL of the binding solution to each well of the assay plate. The plates were sealed and shaken for 10 seconds. The plates were incubated at room temperature for one hour, then the parallel and perpendicular fluorescence was measured using a Tecan Genios Pro plate reader (Tecan, Switzerland). The apparent inhibition constants for the compounds against all 11 PDE's was determined from the parallel and perpendicular fluorescent readings as described for PDE10 FP assay using the following apparent KM values for each enzyme and substrate combination: PDE1A (FAM cGMP) 70 nM, human PDE2A1 (FAM cAMP) 10,000 nM, PDE3A (FAM cAMP) 50 nM, PDE4A1A (FAM cAMP) 1500 nM, PDE5A1 (FAM cGMP) 400 nM, PDE6C (FAM cGMP) 700 nM, PDE7A (FAM cAMP) 150 nM, PDE8A1 (FAM cAMP) 50 nM, PDE9A2 (FAM cGMP) 60 nM, PDE10A2 (FAM cAMP) 150 nM, PDE11A4 (FAM cAMP) 1000 nM. The intrinsic PDE2 inhibitory activity of a compound which may be used in accordance with the present invention may be determined by these assays.

human PDE2A1, sequence (O00408 other isoform, or with tags, fused parts or gaps): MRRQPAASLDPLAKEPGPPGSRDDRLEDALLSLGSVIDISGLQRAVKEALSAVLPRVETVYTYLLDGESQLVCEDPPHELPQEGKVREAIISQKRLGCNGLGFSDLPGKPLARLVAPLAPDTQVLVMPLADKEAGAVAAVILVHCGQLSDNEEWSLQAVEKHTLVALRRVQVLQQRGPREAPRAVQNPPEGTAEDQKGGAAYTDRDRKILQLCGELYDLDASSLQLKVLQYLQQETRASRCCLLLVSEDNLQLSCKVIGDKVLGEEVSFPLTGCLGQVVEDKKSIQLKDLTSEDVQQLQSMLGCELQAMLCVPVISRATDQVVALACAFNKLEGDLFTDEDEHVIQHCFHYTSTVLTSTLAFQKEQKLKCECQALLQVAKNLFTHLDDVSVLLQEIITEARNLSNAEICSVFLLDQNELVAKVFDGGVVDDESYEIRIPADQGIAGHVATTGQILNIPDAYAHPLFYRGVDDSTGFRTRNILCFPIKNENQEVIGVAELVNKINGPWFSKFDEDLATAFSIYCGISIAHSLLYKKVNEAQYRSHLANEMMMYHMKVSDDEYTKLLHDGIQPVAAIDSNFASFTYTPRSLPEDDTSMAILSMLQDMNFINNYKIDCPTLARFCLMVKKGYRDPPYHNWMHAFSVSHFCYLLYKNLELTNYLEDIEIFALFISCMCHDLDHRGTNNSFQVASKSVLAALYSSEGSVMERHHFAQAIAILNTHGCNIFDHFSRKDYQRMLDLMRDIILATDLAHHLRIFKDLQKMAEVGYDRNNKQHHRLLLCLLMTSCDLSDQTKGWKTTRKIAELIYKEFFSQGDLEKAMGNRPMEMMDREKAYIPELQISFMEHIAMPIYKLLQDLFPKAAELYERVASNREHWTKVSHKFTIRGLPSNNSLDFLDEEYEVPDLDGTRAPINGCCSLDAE

As to `CC(NC(=O)c1cc(=O)[nH]c(-c2ncccn2)n1)c1ccc(C(C)(C)C(F)(F)F)cc1` (single isomer, unassigned) [Example 700, (S)- or (R)-6-oxo-N-(1-(4-(1,1,1-trifluoro-2-methylpropan-2-yl)phenyl)ethyl)-1,6-dihydro-[2,2′-bipyrimidine]-4-carboxamide], the Ki is over 2960 nM.

With `CCc1nc(C(=O)N[C@H](C)c2ccc(OC(F)(F)F)c(F)c2)cc(=O)[nH]1` [Example 598, 2-ethyl-N-{(1R)-1-[3-fluoro-4-(trifluoromethoxy)phenyl]ethyl}-6-oxo-1,6-dihydropyrimidine-4-carboxamide], the Ki was found to be 3.7 nM. In the case of `CCC(C)(NC(=O)c1cc(=O)[nH]c(C)n1)c1ccc(C(F)(F)F)cc1F` (single isomer, unassigned) [Example 719, (R)- or (S)-N-(2-(2-fluoro-4-(trifluoromethyl)phenyl)butan-2-yl)-2-methyl-6-oxo-1,6-dihydropyrimidine-4-carboxamide], the Ki worked out at 7.7 nM. For the molecule `O=C(NC1(c2ccc3c(c2)OC(F)(F)O3)CC1)c1cc(=O)[nH]c(-c2ncccn2)n1` [Example 571, N-[1-(2,2-difluoro-1,3-benzodioxol-5-yl)cyclopropyl]-6-oxo-1,6-dihydro-2,2′-bipyrimidine-4-carboxamide], the Ki was 71 nM.

Turning to `CC1([C@@H](NC(=O)c2cc(=O)[nH]c(-c3ncccn3)n2)c2ccc(S(F)(F)(F)(F)F)cc2)CC1` [Example 564, N-{(R)-(1-methylcyclopropyl)[4-(pentafluoro-λ^6-sulfanyl)phenyl]methyl}-6-oxo-1,6-dihydro-2,2′-bipyrimidine-4-carboxamide], the inhibition constant Ki stood at 6.7 nM. For the molecule `CC(C)c1ccc([C@H](NC(=O)c2cc(=O)[nH]c(-c3ncccn3)n2)C2(C)CC2)cc1` [Example 562, N-{(R)-(1-methylcyclopropyl)[4-(1-methylethyl)phenyl]methyl}-6-oxo-1,6-dihydro-2,2′-bipyrimidine-4-carboxamide], the Ki came to 4.3 nM. Consider `CC[C@@H](NC(=O)c1cc(=O)[nH]c(-c2ncccn2)n1)c1ccc2c(c1)OC(F)(F)O2` [Example 590, N-[(1R)-1-(2,2-difluoro-1,3-benzodioxol-5-yl)propyl]-6-oxo-1,6-dihydro-2,2′-bipyrimidine-4-carboxamide], for which the Ki was 34 nM. With `Cc1nc(C(=O)N[C@@H](c2ccc3c(c2)OC(F)(F)O3)C(C)(C)C)cc(=O)[nH]1` [Example 633, N-[(1R)-1-(2,2-difluoro-1,3-benzodioxol-5-yl)-2,2-dimethylpropyl]-2-methyl-6-oxo-1,6-dihydropyrimidine-4-carboxamide] the figure was 16 nM; with `CC(C)(C)[C@@H](NC(=O)c1cc(=O)[nH]c(-c2ccccc2)n1)c1ccc(C(F)(F)F)cc1F` [Example 545, N-{(1R)-1-[2-fluoro-4-(trifluoromethyl)phenyl]-2,2-dimethylpropyl}-6-oxo-2-phenyl-1,6-dihydropyrimidine-4-carboxamide], 1.2 nM; with `CCc1nc(C(=O)N[C@H](C)c2ccc(S(F)(F)(F)(F)F)cc2)cc(=O)[nH]1` [Example 599, 2-ethyl-6-oxo-N-{(1R)-1-[4-(pentafluoro-λ^6-sulfanyl)phenyl]ethyl}-1,6-dihydropyrimidine-4-carboxamide], 10 nM. The same measure for `CC(NC(=O)c1cc(=O)[nH]c(-c2ccccc2)n1)c1ccc(C2(C(F)(F)F)CC2)cc1` (single isomer, unassigned) [Example 690, (S)- or (R)-6-oxo-2-phenyl-N-(1-(4-(1-(trifluoromethyl)cyclopropyl)phenyl)-ethyl)-1,6-dihydropyrimidine-4-carboxamide]: over 2960 nM; for `CC(C)[C@@H](NC(=O)c1cc(=O)[nH]c(-c2ncccn2)n1)c1ccc(C2CC2)c(F)c1` [Example 560, N-[(1R)-1-(4-cyclopropyl-3-fluorophenyl)-2-methylpropyl]-6-oxo-1,6-dihydro-2,2′-bipyrimidine-4-carboxamide]: 5.1 nM; for `Cc1nc(C(=O)NC(C)c2ccc(C(F)(F)C(F)(F)F)cc2)cc(=O)[nH]1` (single isomer, unassigned) [Example 684, (S)- or (R)-2-methyl-6-oxo-N-(1-(4-(perfluoroethyl)phenyl)ethyl)-1,6-dihydropyrimidine-4-carboxamide]: over 2960 nM. For the molecule `CC(C)(C)[C@@H](NC(=O)c1cc(=O)[nH]c(-c2ccccc2)n1)c1ccc(C(F)(F)F)c(F)c1` [Example 538, N-{(1R)-1-[3-fluoro-4-(trifluoromethyl)phenyl]-2,2-dimethylpropyl}-6-oxo-2-phenyl-1,6-dihydropyrimidine-4-caboxamide], the Ki stood at 1.4 nM.

`CC1([C@@H](NC(=O)c2cc(=O)[nH]c(-c3ncccn3)n2)c2ccc(C(F)(F)F)c(F)c2)CC1` [Example 583, N-[(R)-[3-fluoro-4-(trifluoromethyl)phenyl](1-methylcyclopropyl)methyl]-6-oxo-1,6-dihydro-2,2′-bipyrimidine-4-carboxamide]: the Ki worked out at 8 nM.

On to `CC1([C@@H](NC(=O)c2cc(=O)[nH]c(-c3ncccn3)n2)c2ccc(C(F)(F)F)cc2)CC1` [Example 582, N-{(R)-(1-methylcyclopropyl)[4-(trifluoromethyl)phenyl]methyl}-6-oxo-1,6-dihydro-2,2′-bipyrimidine-4-carboxamide], for which the Ki came to 10 nM. With `CC(NC(=O)c1cc(=O)[nH]c(-c2ccccc2)n1)c1ccc(C(C)(C)C(F)(F)F)cc1` (single isomer, unassigned) [Example 698, (S)- or (R)-6-oxo-2-phenyl-N-(1-(4-(1,1,1-trifluoro-2-methylpropan-2-yl)phenyl)ethyl)-1,6-dihydropyrimidine-4-carboxamide], the Ki was over 2960 nM. With `CC[C@@H](NC(=O)c1cc(=O)[nH]c(C)n1)c1ccc(C(F)F)c(F)c1` [Example 653], the Ki stood at 148 nM. For `Cc1nc(C(=O)N[C@@H](c2ccc(OC(F)(F)F)cc2)C(C)(C)O)cc(=O)[nH]1` [Example 724, N-{(1S)-2-hydroxy-2-methyl-1-[4-(trifluoromethoxy)phenyl]propyl}-2-methyl-6-oxo-1,6-dihydropyrimidine-4-carboxamide], the inhibition constant Ki turned out to be 3.1 nM. With `Cc1nc(C(=O)NC2(c3ccc(C(F)F)cc3)CC2)cc(=O)[nH]1` [Example 660, N-{1-[4-(difluoromethyl)phenyl]cyclopropyl}-2-methyl-6-oxo-1,6-dihydropyrimidine-4-carboxamide], the Ki came to 54 nM.

Take `Cc1nc(C(=O)NC(c2ccc(S(F)(F)(F)(F)F)cc2F)C(C)(C)C)cc(=O)[nH]1` (single isomer, unassigned) [Example 720, (R)- or (S)-N-(1-(2-fluoro-4-(pentafluoro-λ^6-sulfanyl)phenyl)-2,2-dimethylpropyl)-2-methyl-6-oxo-1,6-dihydropyrimidine-4-carboxamide]: the inhibition constant (Ki) amounted to 2.6 nM. As for `O=C(NC1(c2ccc3c(c2)OC(F)(F)O3)CC1)c1cc(=O)[nH]c(-c2ccccc2)n1` [Example 535, N-[1-(2,2-difluoro-1,3-benzodioxol-5-yl)cyclopropyl]-6-oxo-2-phenyl-1,6-dihydropyrimidine-4-carboxamide], the Ki worked out at 24 nM. Regarding `C[C@@H](NC(=O)c1cc(=O)[nH]c(-c2ncco2)n1)c1ccc(C(F)(F)F)cc1` [Example 675, (R)-2-(oxazol-2-yl)-6-oxo-N-(1-(4-(trifluoromethyl)phenyl)ethyl)-1,6-dihydropyrimidine-4-carboxamide], the Ki was 234 nM. As to `CC(NC(=O)c1cc(=O)[nH]c(-c2ncccn2)n1)c1ccc(C2(C(F)(F)F)CC2)cc1` (single isomer, unassigned) [Example 692, (S)- or (R)-6-oxo-2-(pyrimidin-2-yl)-N-(1-(4-(1-(trifluoromethyl)cyclopropyl)phenyl)-ethyl)-1,6-dihydropyrimidine-4-carboxamide], the Ki is over 2960 nM.

In general, Ki refers to a dissociation constant, usually derived from enzyme kinetics or from competition with a known ligand.

Values taken from patent US9815796B2 (Merck Sharp & Dohme Corp., priority 2013, dated 2017).
